What was measured:
[1] = Time-dependent solubility of hypericin after complexation by PVP (absorption and fluorescence, FIG. 1); format: physicochemical
[2] = in vivo; cited from earlier work

**Q.** What does the source list for `Cc1cc(O)c2c(=O)c3c(O)cc(O)c4c5c(O)cc(O)c6c(=O)c7c(O)cc(C)c8c1c2c(c34)c(c78)c65` [hypericin]?
**A.** solubility state in aqueous environment ([1]; aqueous solution, with or without PVP): forms at once insoluble aggregates; absorption in the relevant spectral region ([1]; aqueous, hypericin+PVP after 30, 60, 180 minutes): no absorption; biological half-life [2]: 34-38 h
